PubChem BioAssay (NCI)
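Compound exposure: 48 hours, 5 concentrations, 96-well plates. Here, GI50 denotes the concentration required for 50% inhibition of growth. TGI: concentration producing complete growth inhibition.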

Key:
Assay in all cases: NCI-60 cell line screen, 48 h
786-0 renal = system: 786-0 renal
A498 renal = system: A498 renal
A549 NSCLC = system: A549 NSCLC
ACHN renal = system: ACHN renal
BT-549 breast = system: BT-549 breast
CAKI-1 renal = system: CAKI-1 renal
CCRF-CEM leukemia = system: CCRF-CEM leukemia
COLO 205 colon = system: COLO 205 colon
DU-145 prostate = system: DU-145 prostate
EKVX NSCLC = system: EKVX NSCLC
HCC-2998 colon = system: HCC-2998 colon
HCT-116 colon = system: HCT-116 colon
HCT-15 colon = system: HCT-15 colon
HL-60(TB) leukemia = system: HL-60(TB) leukemia
HOP-62 NSCLC = system: HOP-62 NSCLC
HOP-92 NSCLC = system: HOP-92 NSCLC
HS 578T breast = system: HS 578T breast
HT29 colon = system: HT29 colon
IGROV1 ovarian = system: IGROV1 ovarian
K-562 leukemia = system: K-562 leukemia
KM12 colon = system: KM12 colon
M14 melanoma = system: M14 melanoma
MALME-3M melanoma = system: MALME-3M melanoma
MCF7 breast = system: MCF7 breast
MDA-MB-231 breast = system: MDA-MB-231 breast
MDA-MB-435 = system: MDA-MB-435
MOLT-4 leukemia = system: MOLT-4 leukemia
NCI-H226 lung = system: NCI-H226 lung
NCI-H23 lung = system: NCI-H23 lung
NCI-H460 lung = system: NCI-H460 lung
NCI-H522 lung = system: NCI-H522 lung
NCI/ADR-RES ovarian = system: NCI/ADR-RES ovarian
OVCAR-4 ovarian = system: OVCAR-4 ovarian
OVCAR-5 ovarian = system: OVCAR-5 ovarian
OVCAR-8 ovarian = system: OVCAR-8 ovarian
PC-3 prostate = system: PC-3 prostate
RPMI-8226 leukemia = system: RPMI-8226 leukemia
RXF 393 renal = system: RXF 393 renal
SF-268 CNS = system: SF-268 CNS
SF-295 CNS = system: SF-295 CNS
SF-539 CNS = system: SF-539 CNS
SK-MEL-2 melanoma = system: SK-MEL-2 melanoma
SK-MEL-28 melanoma = system: SK-MEL-28 melanoma
SK-MEL-5 melanoma = system: SK-MEL-5 melanoma
SK-OV-3 ovarian = system: SK-OV-3 ovarian
SN12C renal = system: SN12C renal
SNB-19 CNS = system: SNB-19 CNS
SNB-75 CNS = system: SNB-75 CNS
SR leukemia = system: SR leukemia
SW-620 colon = system: SW-620 colon
T-47D breast = system: T-47D breast
TK-10 renal = system: TK-10 renal
U251 CNS = system: U251 CNS
UACC-257 melanoma = system: UACC-257 melanoma
UACC-62 melanoma = system: UACC-62 melanoma
UO-31 renal = system: UO-31 renal

For `O=C(NCCCNc1cc(-c2cn(-c3ccccc3)nc2-c2cccc(O)c2)ccn1)Nc1cccc(C(F)(F)F)c1`, the GI50 (786-0 renal) was 1.07 µM, the TGI (786-0 renal) was 3.71 µM and the GI50 (A498 renal) was 3.17 µM. For the same compound, the TGI (A498 renal) was 7.18 µM, the GI50 (A549 NSCLC) was 3.35 µM and the TGI (A549 NSCLC) was 11.2 µM. It also gave a GI50 (ACHN renal) of 5.23 µM, a TGI (ACHN renal) of 15.5 µM and a GI50 (BT-549 breast) of 3.26 µM. It also gave a TGI (BT-549 breast) of 7.63 µM, a GI50 (CAKI-1 renal) of 1.9 µM and a TGI (CAKI-1 renal) of 12.3 µM. It also gave a GI50 (CCRF-CEM leukemia) of 1.71 µM, a TGI (CCRF-CEM leukemia) of 33.3 µM and a GI50 (COLO 205 colon) of 2.97 µM. For the same compound, the TGI (COLO 205 colon) was 8.72 µM, the GI50 (DU-145 prostate) was 4.8 µM and the TGI (DU-145 prostate) was 11.9 µM. The GI50 (EKVX NSCLC) was 3.5 µM, the TGI (EKVX NSCLC) was 8.45 µM and the GI50 (HCC-2998 colon) was 1.26 µM. For the same compound, the TGI (HCC-2998 colon) was 4.34 µM, the GI50 (HCT-116 colon) was 1.97 µM and the TGI (HCT-116 colon) was 6.33 µM. It also gave a GI50 (HCT-15 colon) of 1.06 µM, a TGI (HCT-15 colon) of 4.32 µM and a GI50 (HL-60(TB) leukemia) of 3.42 µM. The TGI (HL-60(TB) leukemia) was 14.5 µM, the GI50 (HOP-62 NSCLC) was 4.09 µM and the TGI (HOP-62 NSCLC) was 9.59 µM. It also gave a GI50 (HOP-92 NSCLC) of 1.25 µM, a TGI (HOP-92 NSCLC) of 6.01 µM and a GI50 (HS 578T breast) of 1.34 µM. The TGI (HS 578T breast) was 7.74 µM, the GI50 (HT29 colon) was 1.51 µM and the TGI (HT29 colon) was 6.19 µM. It also gave a GI50 (IGROV1 ovarian) of 2.83 µM, a TGI (IGROV1 ovarian) of 7.89 µM and a GI50 (K-562 leukemia) of 1.26 µM. For the same compound, the TGI (K-562 leukemia) was 33.3 µM, the GI50 (KM12 colon) was 2.63 µM and the TGI (KM12 colon) was 7.39 µM. The GI50 (M14 melanoma) was 2.18 µM, the TGI (M14 melanoma) was 6.99 µM and the GI50 (MALME-3M melanoma) was 1.54 µM. The TGI (MALME-3M melanoma) was 6.08 µM, the GI50 (MCF7 breast) was 2.73 µM and the TGI (MCF7 breast) was 9.39 µM. For the same compound, the GI50 (MDA-MB-231 breast) was 2.85 µM, the TGI (MDA-MB-231 breast) was 7.76 µM and the GI50 (MDA-MB-435) was 3.41 µM. The TGI (MDA-MB-435) was 7.57 µM, the GI50 (MOLT-4 leukemia) was 1.67 µM and the TGI (MOLT-4 leukemia) was 15 µM. The GI50 (NCI-H226 lung) was 4.88 µM, the TGI (NCI-H226 lung) was 11.5 µM and the GI50 (NCI-H23 lung) was 4.34 µM. For the same compound, the TGI (NCI-H23 lung) was 9.34 µM, the GI50 (NCI-H460 lung) was 3.48 µM and the TGI (NCI-H460 lung) was 8.89 µM. For the same compound, the GI50 (NCI-H522 lung) was 5.12 µM, the TGI (NCI-H522 lung) was 11 µM and the GI50 (NCI/ADR-RES ovarian) was 4.9 µM. The TGI (NCI/ADR-RES ovarian) was 12.8 µM, the GI50 (OVCAR-4 ovarian) was 2.13 µM and the TGI (OVCAR-4 ovarian) was 7.75 µM. For the same compound, the GI50 (OVCAR-5 ovarian) was 3.96 µM, the TGI (OVCAR-5 ovarian) was 9.71 µM and the GI50 (OVCAR-8 ovarian) was 3.88 µM. It also gave a TGI (OVCAR-8 ovarian) of 10 µM, a GI50 (PC-3 prostate) of 1.79 µM and a TGI (PC-3 prostate) of 11.2 µM. For the same compound, the GI50 (RPMI-8226 leukemia) was 0.727 µM, the TGI (RPMI-8226 leukemia) was 6.12 µM and the GI50 (RXF 393 renal) was 1.08 µM. It also gave a TGI (RXF 393 renal) of 4.96 µM, a GI50 (SF-268 CNS) of 3.26 µM and a TGI (SF-268 CNS) of 9.69 µM. The GI50 (SF-295 CNS) was 1.76 µM, the TGI (SF-295 CNS) was 6.42 µM and the GI50 (SF-539 CNS) was 2.78 µM. For the same compound, the TGI (SF-539 CNS) was 7.18 µM, the GI50 (SK-MEL-2 melanoma) was 5.29 µM and the TGI (SK-MEL-2 melanoma) was 11.7 µM. The GI50 (SK-MEL-28 melanoma) was 3.48 µM, the TGI (SK-MEL-28 melanoma) was 7.51 µM and the GI50 (SK-MEL-5 melanoma) was 3.25 µM. For the same compound, the TGI (SK-MEL-5 melanoma) was 7.16 µM, the GI50 (SK-OV-3 ovarian) was 4.49 µM and the TGI (SK-OV-3 ovarian) was 10.1 µM. The GI50 (SN12C renal) was 3.65 µM, the TGI (SN12C renal) was 7.91 µM and the GI50 (SNB-19 CNS) was 3.99 µM. For the same compound, the TGI (SNB-19 CNS) was 8.97 µM, the GI50 (SNB-75 CNS) was 0.743 µM and the TGI (SNB-75 CNS) was 4.1 µM. For the same compound, the GI50 (SR leukemia) was 1.65 µM, the TGI (SR leukemia) was 12.8 µM and the GI50 (SW-620 colon) was 3.85 µM. The TGI (SW-620 colon) was 8.31 µM, the GI50 (T-47D breast) was 3.42 µM and the TGI (T-47D breast) was 16.7 µM. The GI50 (TK-10 renal) was 5.75 µM, the TGI (TK-10 renal) was 13.2 µM and the GI50 (U251 CNS) was 2.57 µM. The TGI (U251 CNS) was 7.45 µM, the GI50 (UACC-257 melanoma) was 4.8 µM and the TGI (UACC-257 melanoma) was 10.1 µM. For the same compound, the GI50 (UACC-62 melanoma) was 4.41 µM, the TGI (UACC-62 melanoma) was 8.84 µM and the GI50 (UO-31 renal) was 2.1 µM. For the same compound, the TGI (UO-31 renal) was 10.8 µM.
